Assay results as given in ChEMBL document CHEMBL1671627, “Increasing trends in antimicrobial resistance among clinically important anaerobes and Bacteroides fragilis isolates causing nosocomial infections: emerging resistance to carbapenems” (2008).
Converted amounts (≈) assume the structure as drawn.

Experiments:
[1] = test system: Phocaeicola vulgatus; assay: Antibacterial activity against beta-lactamase producing Bacteroides vulgatus by CLSI agar dilution method; assay type: functional
[2] = test system: Bacteroides uniformis; assay: Antibacterial activity against beta-lactamase producing Bacteroides uniformis by CLSI agar dilution method; assay type: functional
[3] = test system: Bacteroides caccae; assay: Antibacterial activity against beta-lactamase producing Bacteroides caccae by CLSI agar dilution method; assay type: functional
[4] = test system: Fusobacterium varium; assay: Antibacterial activity against Fusobacterium varium by CLSI agar dilution method; assay type: functional
[5] = test system: Fusobacterium nucleatum; assay: Antibacterial activity against Fusobacterium nucleatum by CLSI agar dilution method; assay type: functional
[6] = test system: Fusobacterium mortiferum; assay: Antibacterial activity against Fusobacterium mortiferum by CLSI agar dilution method; assay type: functional
[7] = test system: Fusobacterium necrophorum; assay: Antibacterial activity against Fusobacterium necrophorum by CLSI agar dilution method; assay type: functional
[8] = test system: Prevotella buccae; assay: Antibacterial activity against Prevotella buccae by CLSI agar dilution method; assay type: functional; settings: Segatella buccae
[9] = test system: Prevotella bivia; assay: Antibacterial activity against Prevotella bivia by CLSI agar dilution method; assay type: functional
[10] = test system: Prevotella intermedia; assay: Antibacterial activity against Prevotella intermedia by CLSI agar dilution method; assay type: functional
[11] = test system: Prevotella melaninogenica; assay: Antibacterial activity against Prevotella melaninogenica by CLSI agar dilution method; assay type: functional
[12] = test system: Veillonella parvula; assay: Antibacterial activity against Veillonella parvula by CLSI agar dilution method; assay type: functional
[13] = test system: Clostridium perfringens; assay: microbe, parasite or virus in culture; assay type: functional
[14] = test system: Clostridium paraputrificum; assay: Antibacterial activity against beta-lactamase producing Clostridium paraputrificum by CLSI agar dilution method; assay type: functional
[15] = test system: Clostridium septicum; assay: Antibacterial activity against beta-lactamase producing Clostridium septicum by CLSI agar dilution method; assay type: functional
[16] = test system: Clostridium tertium; assay: Antibacterial activity against beta-lactamase producing Clostridium tertium by CLSI agar dilution method; assay type: functional
[17] = test system: Bacteroides fragilis; assay: Antibacterial activity against Bacteroides fragilis by CLSI agar dilution method; assay type: functional
[18] = test system: Bacteroides thetaiotaomicron; assay: Antibacterial activity against beta-lactamase producing Bacteroides thetaiotaomicron by CLSI agar dilution method; assay type: functional
[19] = test system: Peptostreptococcus anaerobius; assay: Antibacterial activity against beta-lactamase producing Peptostreptococcus anaerobius by CLSI agar dilution method; assay type: functional
[20] = test system: Parvimonas micra; assay: Antibacterial activity against beta-lactamase producing Micromonas micros by CLSI agar dilution method; assay type: functional
[21] = test system: Peptoniphilus asaccharolyticus; assay: Antibacterial activity against beta-lactamase producing Peptoniphilus asaccharolyticus by CLSI agar dilution method; assay type: functional
[22] = test system: Finegoldia magna; assay: Antibacterial activity against beta-lactamase producing Finegoldia magna by CLSI agar dilution method; assay type: functional
[23] = test system: Bacteroides fragilis; assay: Antibacterial activity against Bacteroides fragilis assessed as susceptible isolates by CLSI agar dilution method; assay type: functional
[24] = test system: Bacteroides fragilis; assay: Antibacterial activity against Bacteroides fragilis assessed as resistant isolates by CLSI agar dilution method; assay type: functional
[25] = test system: Bacteroides thetaiotaomicron; assay: Antibacterial activity against beta-lactamase producing Bacteroides thetaiotaomicron assessed as susceptible isolates by CLSI agar dilution method; assay type: functional
[26] = test system: Bacteroides thetaiotaomicron; assay: Antibacterial activity against beta-lactamase producing Bacteroides thetaiotaomicron assessed as resistant isolates by CLSI agar dilution method; assay type: functional
[27] = test system: Phocaeicola vulgatus; assay: Antibacterial activity against beta-lactamase producing Bacteroides vulgatus assessed as susceptible isolates by CLSI agar dilution method; assay type: functional
[28] = test system: Phocaeicola vulgatus; assay: Antibacterial activity against beta-lactamase producing Bacteroides vulgatus assessed as resistant isolates by CLSI agar dilution method; assay type: functional
[29] = test system: Bacteroides uniformis; assay: Antibacterial activity against beta-lactamase producing Bacteroides uniformis assessed as susceptible isolates by CLSI agar dilution method; assay type: functional
[30] = test system: Bacteroides uniformis; assay: Antibacterial activity against beta-lactamase producing Bacteroides uniformis assessed as resistant isolates by CLSI agar dilution method; assay type: functional
[31] = test system: Bacteroides caccae; assay: Antibacterial activity against beta-lactamase producing Bacteroides caccae assessed as susceptible isolates by CLSI agar dilution method; assay type: functional
[32] = test system: Bacteroides caccae; assay: Antibacterial activity against beta-lactamase producing Bacteroides caccae assessed as resistant isolates by CLSI agar dilution method; assay type: functional
[33] = test system: Fusobacterium varium; assay: Antibacterial activity against Fusobacterium varium assessed as susceptible isolates by CLSI agar dilution method; assay type: functional
[34] = test system: Fusobacterium nucleatum; assay: Antibacterial activity against Fusobacterium nucleatum assessed as susceptible isolates by CLSI agar dilution method; assay type: functional
[35] = test system: Fusobacterium mortiferum; assay: Antibacterial activity against Fusobacterium mortiferum assessed as susceptible isolates by CLSI agar dilution method; assay type: functional
[36] = test system: Fusobacterium necrophorum; assay: Antibacterial activity against Fusobacterium necrophorum assessed as susceptible isolates by CLSI agar dilution method; assay type: functional
[37] = test system: Fusobacterium varium; assay: Antibacterial activity against Fusobacterium varium assessed as resistant isolates by CLSI agar dilution method; assay type: functional
[38] = test system: Fusobacterium nucleatum; assay: Antibacterial activity against Fusobacterium nucleatum assessed as resistant isolates by CLSI agar dilution method; assay type: functional
[39] = test system: Fusobacterium mortiferum; assay: Antibacterial activity against Fusobacterium mortiferum assessed as resistant isolates by CLSI agar dilution method; assay type: functional
[40] = test system: Fusobacterium necrophorum; assay: Antibacterial activity against Fusobacterium necrophorum assessed as resistant isolates by CLSI agar dilution method; assay type: functional
[41] = test system: Prevotella buccae; assay: Antibacterial activity against Prevotella buccae assessed as susceptible isolates by CLSI agar dilution method; assay type: functional, Segatella buccae
[42] = test system: Prevotella bivia; assay: Antibacterial activity against Prevotella bivia assessed as susceptible isolates by CLSI agar dilution method; assay type: functional
[43] = test system: Prevotella intermedia; assay: Antibacterial activity against Prevotella intermedia assessed as susceptible isolates by CLSI agar dilution method; assay type: functional
[44] = test system: Prevotella melaninogenica; assay: Antibacterial activity against Prevotella melaninogenica assessed as susceptible isolates by CLSI agar dilution method; assay type: functional
[45] = test system: Prevotella buccae; assay: Antibacterial activity against Prevotella buccae assessed as resistant isolates by CLSI agar dilution method; assay type: functional, Segatella buccae
[46] = test system: Prevotella bivia; assay: Antibacterial activity against Prevotella bivia assessed as resistant isolates by CLSI agar dilution method; assay type: functional
[47] = test system: Prevotella intermedia; assay: Antibacterial activity against Prevotella intermedia assessed as resistant isolates by CLSI agar dilution method; assay type: functional
[48] = test system: Prevotella melaninogenica; assay: Antibacterial activity against Prevotella melaninogenica assessed as resistant isolates by CLSI agar dilution method; assay type: functional

Structure (SMILES): C[C@H]1COc2c(N3CCN(C)CC3)c(F)cc3c(=O)c(C(=O)O)cn1c23.C[C@H]1COc2c(N3CCN(C)CC3)c(F)cc3c(=O)c(C(=O)O)cn1c23.O [LEVOFLOXACIN]
- MIC50 [1]: 2 µg/mL
- MIC90 [1]: 8 µg/mL
- MIC50 [2]: 2 µg/mL
- MIC90 [2]: 8 µg/mL
- MIC50 [3]: 2 µg/mL
- MIC90 [3]: 8 µg/mL
- MIC50 [4]: 2 µg/mL
- MIC90 [4]: 4 µg/mL
- MIC50 [5]: 2 µg/mL
- MIC90 [5]: 4 µg/mL
- MIC50 [6]: 2 µg/mL
- MIC90 [6]: 4 µg/mL
- MIC50 [7]: 2 µg/mL
- MIC90 [7]: 4 µg/mL
- MIC50 [8]: 1 µg/mL
- MIC90 [8]: 16 µg/mL
- MIC50 [9]: 1 µg/mL
- MIC90 [9]: 16 µg/mL
- MIC50 [10]: 1 µg/mL
- MIC90 [10]: 16 µg/mL
- MIC50 [11]: 1 µg/mL
- MIC90 [11]: 16 µg/mL
- MIC [12]: 0.06 µg/mL
- MIC90 [13]: 4 µg/mL
- MIC50 [14]: 0.5 µg/mL
- MIC90 [14]: 4 µg/mL
- MIC50 [15]: 0.5 µg/mL
- MIC90 [15]: 4 µg/mL
- MIC50 [16]: 0.5 µg/mL
- MIC90 [16]: 4 µg/mL
- MIC50 [17]: 2 µg/mL
- MIC90 [17]: 8 µg/mL
- MIC50 [18]: 4 µg/mL
- MIC90 [18]: 8 µg/mL
- MIC50 [19]: 0.5 µg/mL
- MIC90 [19]: 32 µg/mL
- MIC50 [20]: 0.5 µg/mL
- MIC90 [20]: 32 µg/mL
- MIC50 [21]: 0.5 µg/mL
- MIC90 [21]: 32 µg/mL
- MIC50 [22]: 0.5 µg/mL
- MIC90 [22]: 32 µg/mL

Structure (SMILES): CC1(C)S[C@@H]2[C@H](NC(=O)Cc3ccccc3)C(=O)N2[C@H]1C(=O)O [PENICILLIN G]
- Activity [23]: 0%
- Activity [24]: 100%
- Activity [25]: 0%
- Activity [26]: 100%
- MIC50 [1]: > 128 µg/mL
- MIC90 [1]: > 128 µg/mL
- Activity [27]: 0%
- Activity [28]: 100%
- MIC50 [2]: > 128 µg/mL
- MIC90 [2]: > 128 µg/mL
- Activity [29]: 0%
- Activity [30]: 100%
- MIC50 [3]: > 128 µg/mL
- MIC90 [3]: > 128 µg/mL
- Activity [31]: 0%
- Activity [32]: 100%
- MIC50 [4]: 0.25 µg/mL (≈ 0.748 µM)
- MIC90 [4]: 1 µg/mL (≈ 2.99 µM)
- MIC50 [5]: 0.25 µg/mL (≈ 0.748 µM)
- MIC90 [5]: 1 µg/mL (≈ 2.99 µM)
- MIC50 [6]: 0.25 µg/mL (≈ 0.748 µM)
- MIC90 [6]: 1 µg/mL (≈ 2.99 µM)
- MIC50 [7]: 0.25 µg/mL (≈ 0.748 µM)
- MIC90 [7]: 1 µg/mL (≈ 2.99 µM)
- Activity [33]: 85%
- Activity [34]: 85%
- Activity [35]: 85%
- Activity [36]: 85%
- Activity [37]: 11%
- Activity [38]: 11%
- Activity [39]: 11%
- Activity [40]: 11%
- MIC50 [8]: 16 µg/mL (≈ 47.8 µM)
- MIC90 [8]: 64 µg/mL (≈ 191 µM)
- MIC50 [9]: 16 µg/mL (≈ 47.8 µM)
- MIC90 [9]: 64 µg/mL (≈ 191 µM)
- MIC50 [10]: 16 µg/mL (≈ 47.8 µM)
- MIC90 [10]: 64 µg/mL (≈ 191 µM)
- MIC50 [11]: 16 µg/mL (≈ 47.8 µM)
- MIC90 [11]: 64 µg/mL (≈ 191 µM)
- Activity [41]: 6%
- Activity [42]: 6%
- Activity [43]: 6%
- Activity [44]: 6%
- Activity [45]: 95%
- Activity [46]: 95%
- Activity [47]: 95%
- Activity [48]: 95%
- MIC [12]: 0.06 µg/mL (≈ 0.179 µM)
- MIC50 [13]: 0.25 µg/mL (≈ 0.748 µM)
- MIC90 [13]: 4 µg/mL (≈ 12 µM)
- MIC50 [14]: 0.25 µg/mL (≈ 0.748 µM)
- MIC90 [14]: 4 µg/mL (≈ 12 µM)
- MIC50 [15]: 0.25 µg/mL (≈ 0.748 µM)
- MIC90 [15]: 4 µg/mL (≈ 12 µM)
- MIC50 [16]: 0.25 µg/mL (≈ 0.748 µM)
- MIC90 [16]: 4 µg/mL (≈ 12 µM)
- MIC50 [17]: 16 µg/mL (≈ 47.8 µM)
- MIC90 [17]: > 128 µg/mL
- MIC50 [18]: 16 µg/mL (≈ 47.8 µM)
- MIC90 [18]: > 128 µg/mL
- MIC [19]: 0.03 µg/mL (≈ 0.0897 µM)
- MIC50 [19]: 0.03 µg/mL (≈ 0.0897 µM)
- MIC90 [19]: 1 µg/mL (≈ 2.99 µM)
- MIC [20]: 0.03 µg/mL (≈ 0.0897 µM)
- MIC50 [20]: 0.03 µg/mL (≈ 0.0897 µM)
- MIC90 [20]: 1 µg/mL (≈ 2.99 µM)
- MIC [21]: 0.03 µg/mL (≈ 0.0897 µM)
- MIC50 [21]: 0.03 µg/mL (≈ 0.0897 µM)
- MIC90 [21]: 1 µg/mL (≈ 2.99 µM)
- MIC [22]: 0.03 µg/mL (≈ 0.0897 µM)
- MIC50 [22]: 0.03 µg/mL (≈ 0.0897 µM)
- MIC90 [22]: 1 µg/mL (≈ 2.99 µM)
